Data on two compounds can be found in PMC8067314, “Uptake of Vitamins D2, D3, D4, D5, D6, and D7 Solubilized in Mixed Micelles by Human Intestinal Cells, Caco-2, an Enhancing Effect of Lysophosphatidylcholine on the Cellular Uptake, and Estimation of Vitamins D’ Biological Activities” (Nutrients, 2021).

In one data set the test system is chicks. Conditions: cited from earlier work.
Data set [1] has as its system Caco-2 cells with insufficient cell-cell adhesion. In words: Uptake of vitamin D2 by adherent Caco-2 cells with insufficient cell-cell adhesion. In kind it is in vitro ADME, human. Conditions: 2-h incubation. An excerpt:
(§1) Since 2001, we have reported that lysophospholipids enhance the uptake of micellar carotenoids in Caco-2 cells. […] In the present study, using the same method, we examined whether the mechanism for the enhancing effect of lysophosphatidylcholine could be adapted to vitamin D, as well. To evaluate the impact of the degree of cell-cell adhesion/cell-matrix adhesion on vitamin D uptake by cells, we prepared in two different ways: i) dispersed Caco-2 cells without cell-cell adhesion/cell-matrix adhesion and ii) Caco-2 cells with insufficient cell-cell adhesion.
(ii): The cells that had insufficient cell-cell adhesion were prepared by reducing the culture period from 20–22 d for full differentiation to <7 d after the seeding described above.
(§2) Subsequent operations are common to the two models of cells. The medium consisting of mixed micellar vitamin D (0.5 mL) was added to adhered cells or dispersed cells in individual wells containing FBS-free DMEM (0.5 mL), resulting in a total medium volume of 1.0 mL/well, and the final start concentrations of mixed micellar components were one-half the initial concentration. The cells were incubated in the same conditions as described above, i.e., in a CO2 incubator at 37 °C for 2 h, and then the cells were washed with 2 mM taurocholate/PBS, followed by two times with PBS. The vitamin D uptake and residual mixed micellar vitamin D were evaluated as the previous subsection, but the filtrate of residual mixed micellar vitamin D was diluted with a 2x-volume of H2O. The cellular protein content was also determined as above.

The next data set deals with dispersed Caco-2 cells. In words: Uptake of vitamin D from mixed micelles by dispersed Caco-2 cells. Format: in vitro ADME, human. Conditions: dispersed Caco-2 cells, 2 h.
Text: as §1
(i): The dispersed cells were prepared by trypsin treatment. After collecting the cells in the culture medium, the number of cells was counted and diluted with the medium. The cells were washed two times with FBS-free DMEM and then seeded in culture plate of 24-well for suspension cultures (SC plate; Greiner Bio-One, Frickenhausen, Germany) at a density of 15 × 10^4 cells per well containing the FBS-free DMEM (0.5 mL).
as §2

The test system of data set [2] is rats. As to conditions: cited from earlier work.
Data set [3] has as its system rats. As to conditions: line test, vitamins D provided as a crystal; cited from earlier work.
Data set [4] deals with rats. More on the design: method as in PMID 9017001. Conditions: cited from earlier work.

In the case of `C=C1CC[C@H](O)C/C1=C/C=C1\CCC[C@]2(C)[C@@H]([C@H](C)/C=C/[C@H](C)C(C)C)CC[C@@H]12` [Vitamin D2], in the data set on chicks, the “Intestinal absorption compared with vitamin D3 or D4” value was “less absorbed than vitamin D3”. In addition, the “Vitamin D2 uptake, NoPC vs lysoPC mixed micelles” value in data set [1] (Caco-2 cells cultured for 3 d) was “significantly higher by cells cultured for 3 d from NoPC mixed micelles”; in data set [1] (Caco-2 cells cultured for 5 d), “no difference in the uptake amounts between NoPC mixed micelles and lysoPC mixed micelles”; in data set [1] (Caco-2 cells cultured for 7 d), “uptake from lysoPC mixed micelles were significantly higher than those from NoPC mixed micelles”. In addition, the “Vitamin-D2 uptake from lysoPC mixed micelles relative to that from NoPC mixed micelles” value with dispersed Caco-2 cells is recorded as “approximately one-sixth”. Moreover, the “Intestinal absorption compared with vitamin D3” value in the data set on rats [2] is listed as “slightly more easily absorbed than vitamin D3”. The “Anti-rickets activity, comparison of vitamins D” value with rats [3] is “highest activities and were similar”.

Regarding `C=C1/C(=C\C=C2/CCC[C@]3(C)[C@@H]([C@H](C)CC[C@@H](CC)C(C)C)CC[C@@H]23)C[C@@H](O)C[C@@H]1O` [1-OH-vitamin D5], in the data set on rats [4], the “Activity for increasing the blood concentration of calcium relative to 1,25-di(OH)-vitamin D3” value was “approximately one-sixth”.
